This passage reports IC50 and LD50 results from patent US9273018B2, “Piperazine derivatives” (St. Mary's University, priority 2011, dated 2016).

What all share (format): cell-based
Assay [1] deals with U87MG glioblastoma cancer cells. Description: Cytotoxicity of glioblastoma cancer cells (relative cell density). The following applies: Homo sapiens, U-87 MG, relative cell density as percent of control, FIG. 1, read-out: LD50 (the source's name). On the procedure: U87MG glioblastoma cancer cells were cultured according to established protocols (Martinkova et al., Cytotoxicity of and DNA adduct formation by ellipicine in human U87MG glioblastoma cancer cells. Neuro Endocrinol Lett 30 (Suppl 1):60-6, 2009). Temozolomide was added to the cell culture media at increasing doses and the relative cell density, as a percent of control cells not exposed to temozolomide, was calculated. Temozolomide is one of the primary treatments for glioblastoma type cancers and dacarbazine is an antineoplastic chemotherapy used in the treatment of various cells.
To test the cytotoxic effect of 1-[(E)-2-(4-nitrophenyl)diazen-1-yl]-4-phenylpiperazine, 4-[(E)-2-(4-phenylpiperazin-1-yl)diazen-1-yl]benzonitrile, methyl 4-[(E)-2-(4-phenylpiperazin-1-yl)diazen-1-yl]benzoate, methyl 4-[(E)-2-[4-(4-chlorophenyl)piperazin-1-yl)diazen-1-yl]benzoate, 1-[(E)-2-(4-bromophenyl)diazen-1-yl]-4-[(3-methylphenyl)methyl]piperazine, 4-[(E)-2-{4-[(3-methylphenyl)methyl]piperazin-1-yl}diazen-1-yl]benzonitrile serial dilutions of the compounds were made and added to the cell culture media containing the U87MG glioblastoma cancer cells. The relative cell density, as a percent of control cells not exposed to temozolomide, dacarbazine or the experimental compounds, was calculated.

The next assay concerns HT29 colon cancer cells. Description: Cytotoxicity of HT29 colon cancer cells (relative cell density). The following applies: Homo sapiens, HT-29, relative cell density as percent of control, FIG. 3, read-out: LD50 (the source's name).
For another assay, the system named is A549 lung cancer cells. As to the kind of experiment: Cytotoxicity of A549 lung cancer cells (relative cell density). The following applies: relative cell density as percent of control, FIG. 2. On the procedure:
A549 lung cancer cells were cultured according to established protocols (Lieber M. et al., Int. J. Cancer 17: 62-70, 1976). Temozolomide and dacarbazine were separately added to the cell culture media at increasing doses and the relative cell density, as a percent of control cells not exposed to temozolomide or dacarbazine, was calculated.
To test the cytotoxic effect of 1-[(E)-2-(4-nitrophenyl)diazen-1-yl]-4-phenylpiperazine, methyl 4-[(E)-2-(4-phenylpiperazin-1-yl)diazen-1-yl]benzoate, 1-{4[(E)-2-[4-(3,4-dichlorophenyl)piperazin-1-yl]phenyl}ethan-1-one, 1-{4-[(E)-2-[4-pyridin-2-yl)piperazin-1-yl]diazen-1-yl]phenyl}ethan-1-one, serial dilutions of the compounds were made and added to the cell culture media containing the A549 lung cancer cells. The relative cell density, as a percent of control cells not exposed to temozolomide, dacarbazine or the experimental compounds, was calculated.

Turning to `O=[N+]([O-])c1ccc(/N=N/N2CCN(c3ccccc3)CC2)cc1` [Compound 1, 1-[(E)-2-(4-nitrophenyl)diazen-1-yl]-4-phenylpiperazine], the results for the IC50 (in assay [1]; in the assay on HT29 colon cancer cells) were 4.36 µM and 2.5 µM, respectively. The compound further gave an LD50 with A549 lung cancer cells of 5.27 µM.
Regarding `Cc1ccc(/N=N/N2CCN(c3ccccc3)CC2)cc1` [Compound 7, 1-[(E)-2-(4-methylphenyl)diazen-1-yl]-4-phenylpiperazine], the IC50 with HT29 colon cancer cells was found to be 9.6 µM.
With `Cc1cccc(CN2CCN(/N=N/c3ccc(Br)cc3)CC2)c1` [Compound 70, 1-[(E)-2-(4-bromophenyl)diazen-1-yl]-4-[(3-methylphenyl)methyl]piperazine], the IC50 in assay [1] worked out at 12.2 µM; with HT29 colon cancer cells, 17.6 µM.
As for `CC(=O)c1ccc(/N=N/N2CCN(c3ccccn3)CC2)cc1` [Compound 45], in the assay on HT29 colon cancer cells, the IC50 is 11.2 µM. For the same compound, the LD50 in the assay with A549 lung cancer cells came out at 15.6 µM.
For `COC(=O)c1ccc(/N=N/N2CCN(c3ccccc3)CC2)cc1` [Compound 3, Methyl 4-[(E)-2-(4-phenylpiperazin-1-yl)diazen-1-yl]benzoate], the IC50 in assay [1] was 16.2 µM; with HT29 colon cancer cells, 3.9 µM. In the assay on A549 lung cancer cells, this compound gave an LD50 of 25.5 µM.
On to `N#Cc1ccccc1N1CCN(/N=N/c2ccc(Br)cc2)CC1` [Compound 49, 2-{4-[(E)-2-(4-bromophenyl)diazen-1-yl]piperazin-1-yl}benzonitrile], for which, in the assay on HT29 colon cancer cells, the IC50 was determined as 5.2 µM.
In the case of `CC(=O)c1ccc(/N=N/N2CCN(c3ccc(Cl)c(Cl)c3)CC2)cc1` [Compound 22], in the assay with HT29 colon cancer cells, the IC50 is 3.4 µM. The same compound registered an LD50 in the assay on A549 lung cancer cells of 3.4 µM.
On to `N#Cc1ccc(/N=N/N2CCN(c3ccccc3)CC2)cc1` [Compound 2, 4-[(E)-2-(4-phenylpiperazin-1-yl)diazen-1-yl]benzonitrile], for which the IC50 in assay [1] stood at 12.4 µM; in the assay with HT29 colon cancer cells, 2.6 µM.
As to `COC(=O)c1ccc(/N=N/N2CCN(c3ccc(Cl)cc3)CC2)cc1` [Compound 12, methyl 4-[(E)-2-[4-(4-chlorophenyl)piperazin-1-yl)diazen-1-yl]benzoate], in assay [1], the IC50 was found to be 22.2 µM.
`COC(=O)c1ccc(/N=N/N2CCN(c3ccccn3)CC2)cc1` [Compound 42, methyl 4-[(E)-2-[4-(pyridin-2-yl)piperazin-1-yl]diazen-1-yl]benzoate]: the IC50 in the assay with HT29 colon cancer cells turned out to be 14.6 µM.
With `Cn1nnc2c(C(N)=O)ncn2c1=O` [Temozolomide, reference compound], in assay [1], the IC50 amounted to 25.5 µM. Further, the LD50 with A549 lung cancer cells is 60.4 µM.
`Cc1cccc(CN2CCN(/N=N/c3ccc(C#N)cc3)CC2)c1` [Compound 68, 4-[(E)-2-{4-[(3-methylphenyl)methyl]piperazin-1-yl}diazen-1-yl]benzonitrile]: the IC50 in assay [1] worked out at 14 µM; in the assay on HT29 colon cancer cells, 13.5 µM.
Regarding `CN(C)/N=N/c1[nH]cnc1C(N)=O` [dacarbazine, reference compound], the IC50 in assay [1] was determined as 25 µM; with HT29 colon cancer cells, 25.2 µM. In the assay with A549 lung cancer cells, this compound returned an LD50 of 25.7 µM.
